In patent US12667546B2, “Methods for manipulating cell state transitions in cancer” (AGENCY FOR SCIENCE, TECHNOLOGY AND RESEARCH, priority 2018, dated 2026):

Tests used:
[1] = tested on: SERPINE1prom-Luc reporter in NAMEC8 cells; experiment: Dual-Glo luciferase assay of SERPINE1prom-Luc reporter (FF/Ren); type: cell-based, human; settings: Homo sapiens, 72 h, primary screen; NAMEC8-SERPINE1prom-Luc cells grown 3 days with compound; relative to DMSO; read-out: Avr FF/Renilla from DMSO
Text: pGreenFire1-mCMV was cut using ClaI and SpeI and gel purified. Promoter sequences of genes Zeb1, Serpine1, CDH1, CD24, CD44, CD166 were amplified from human genomic DNA with pre-designed primers containing ClaI and SpeI restriction cut sites using AccuPrime Taq DNA Polymerase (Thermo Fisher Scientific). PCR products were then digested with restriction enzymes and gel-purified. Vector was ligated with PCR insert using Quick Ligase (Fermentas) and transformed into Stb12 competent cells. Colonies were picked and inoculated into TB media with ampicillin. Plasmids were then isolated using a plasmid miniprep kit (Qiagen) and sent for sequencing (1 stBASE Laboratories). After verifying the plasmid sequence, transfection into HEK293 cells was carried out to generate lentivirus. Transfection was carried out using FuGENE 6 (Promega). Viral supernatant was harvested at 24 h and 48 h. NAMEC8 cells were then infected twice with virus using polybrene ([…]) and checked for good transduction efficiency using Dual-Glo Luciferase System (Promega).
Stock plates of compound libraries were kindly prepared by GIS CHiP facility at 1 mM concentration in DMSO. NAMEC8-SERPINE1prom-Luc cells were seeded into 384 well plates at a density of 700 cells/well in a total volume of 50 μl, using an automated dispensing system (BioTek). 0.5 μl of compounds were then added to the wells the following day using a robotic pin transfer with a Bravo workstation (Agilent Technologies). Cells were then grown for 3 days and promoter-luciferase activity was measured using the Dual-Glo Luciferase System (Promega).
Assay was carried out according to manufacturer's instructions. To measure luciferase activity in 384 well plates, media was first removed from the plate. Firefly luciferase activity was determined by adding 30 μl Dual-Glo Luciferase substrate (Promega) to the wells and incubated for 10 min before measuring luminescence using a TECAN M1000 Pro plate reader. 15 μl Dual-Glo Stop & Glo substrate was then added to the wells, incubated for 10 min and measuring luminescence on the plate reader to determine Renilla luciferase activity. Promoter luciferase activity is then calculated by taking Firefly luciferase over Renilla luciferase.

[2] = tested on: SUM159; experiment: Tumor growth of ex vivo pre-treated SUM159 injected subcutaneously; type: in vivo, NSG mice; settings: short-term (14 days) ex vivo treatment before transplantation
Description: All animal experiments were approved by the Agency for Science Technology and Research Singapore-Biological Resource Centre IACUC (Protocol number 140940). For pre-treated SUM159 and MCF7-Ras cells, 1×10^6 cells were suspended in 100 μl media containing 50% matrigel and injected subcutaneously into both flanks of female NSG mice. The NSG mice were checked for tumor by palpation once a week and tumors were harvested when they reached ˜15 mm in diameter. For treatment in NSG mice, 1×10^5 NAMEC8-Ras cells were suspended in 100 μl media containing 50% matrigel and injected subcutaneously into both flanks of NSG mice. The NSG mice were checked for tumor formation by palpation and when tumors were about 3 mm, mice were randomized into two groups: vehicle (5% DMSO in corn oil) and treatment (Bexarotene, 100 mg/kg/day oral dosing). Tumor size was measured every week using Vernier calipers and mice were sacrificed when tumors reached ˜15 mm or after ˜4 weeks of treatment. For patient-derived cells, 2×10^6 cells were injected subcutaneously per site in NSG mice.

[3] = tested on: BC24.1 and BC33.1; experiment: EMT and lineage markers in patient-derived ER+, luminal-like tumor cell lines; type: cell-based, human
Description: Breast tissue biopsies from cancer patients were obtained from National Cancer Centre Singapore (NCCS) with patients' consent and under an IRB approved protocol (2015/2976). Tissue was digested with 1 mg/ml collagenase IV (Gibco) and 1 mg/ml dispase II (Thermo Fisher Scientific) in F12 media for 2 h while shaking in a 37° C. incubator. Cell suspension was then put through a cell strainer and centrifuged for 10 min at 1500 rpm. Cells were then washed twice and resuspended in media before seeding on irradiated 3T3 feeders as previously described. When confluent, sub-culturing was carried out by first lifting the feeders using 0.15% trypsin for 2 min. […]
(§1) Cells were rinsed twice in ice-cold PBS. Total RNA was extracted using Trizol (Invitrogen) and column-purified with RNeasy kits (Qiagen). cDNA synthesis was performed with 500 ng of total RNA at 37° C. for 2 h using the SuperScript III First-Strand Synthesis System (Thermo Fisher Scientific), and subsequently diluted 5-fold. mRNA levels were measured with gene-specific primers listed below using the ABI Prism 7900HT Sequence Detection System 2.2 (Applied Biosystems). Results were normalized to GAPDH and analyzed using SDS 2.2 software.
Cells were harvested and scraped from culture dishes in ice-cold PBS. […] Protein concentrations were determined using Coomaisse Blue. […]

[4] = tested on: SUM159 PACR cells; experiment: Morphology and EMT/lineage markers in SUM159 PACR cells; type: cell-based, human
Description: as §1

[5] = tested on: NAMEC8 and BC2.2; experiment: Gene expression of ER target genes; type: cell-based, human
Description: as §1

`C=C(c1ccc(C(=O)O)cc1)c1cc2c(cc1C)C(C)(C)CCC2(C)C` [Bexarotene] was tested, and the activity at 10 µM [1] was 31%, the tumorigenic potential [2] was “severely crippled their tumorigenic potential for up till seven weeks post-transplantation” and the “expression of epithelial/mesenchymal or luminal/basal markers” value [3] was “no dramatic change in the expression of the epithelial/mesenchymal or luminal/basal markers”. For the same compound, the “phenotype (morphology, epithelial and luminal markers)” value [4] was “changed from a mesenchymal-like to an epithelial-like phenotype” and the “expression of ER target genes (ABCA3, NRIP1, TFF1, CREB1)” value [5] was “strongly elevated”.
